Here are results for 6 compounds from patent US8933228B2, “Respiratory formulations and compounds for use therein” (Respivert, Ltd., priority 2010, dated 2015).

In series [1] the test system is ICAM-1 expression in BEAS2B cells. The series can be described thus: Poly I:C-induced ICAM-1 induction in BEAS2B cells. The format is cell-based. As to conditions: Homo sapiens, BEAS-2B; BEAS2B cells, poly I:C 1 μg/mL, 18 hr; read-out: BEAS2B (polyIC) ICAM1 IC50. How it is done:
Poly I:C (1 μg/mL) (Invivogene Ltd., San Diego, Calif.) was transfected into BEAS2B cells (human bronchial epithelial cells, ATCC) with Oligofectamine (Invitrogen, Carlsbad, Calif.). Cells were pre-incubated with final concentrations of test compounds for 2 hr and the level of ICAM1 expression on the cell surface was determined by cell-based ELISA. […] The cells were washed with PBS-Tween and incubated with the secondary antibody (HRP-conjugated anti-rabbit IgG, Dako Ltd., Glostrup, Denmark).

Series [2] deals with HCK enzyme (Homo sapiens (Human), UniProt P08631). The series can be described thus: HCK enzyme inhibition assay (FRET, Z'-LYTE). The class given is biochemical. Particulars: read-out: Enzyme Profile: IC50 Values HCK.
The subject of series [3] is Differentiated U937 cells. The experiment in a line: MTT assay: cell viability. The class given is cell-based, human. Particulars: 1 μg/ml; for d-U937 MTT Assay 4 h: 5% FCS; for d-U937 MTT Assay 24 h: 10% FCS. The protocol: Differentiated U937 cells were pre-incubated with each test compound under two protocols: the first for 4 hr in 5% FCS and the second in 10% FCS for 24 h. The supernatant was replaced with 200 μL of new media and 10 μL of MTT stock solution (5 mg/mL) was added to each well. After incubation for 1 hr the media were removed, 200 μL of DMSO was added to each well and the plates were shaken lightly for 1 hr prior to reading the absorbance at 550 nm. The percentage loss of cell viability was calculated for each well relative to vehicle (0.5% DMSO) treatment. Consequently an apparent increase in cell viability for drug treatment relative to vehicle is tabulated as a negative percentage.
In general terms: Formazan colour is commonly taken as a measure of viable cells.

For series [4], the system named is IL-8 release in d-U937 cells. The series can be described thus: LPS-induced IL-8 release in d-U937 cells. As to conditions: Homo sapiens, dU937; d-U937 cells, LPS 0.1 μg/mL, 4 hr; read-out: d-U937 (LPS) IL-8 IC50. The class given is cell-based. How it is done: (§1) U937 cells, a human monocytic cell line, were differentiated to macrophage-type cells by incubation with phorbol myristate acetate (PMA; 100 ng/mL) for 48 to 72 hr, whereupon the cells become adherent. […] Coli: O111:B4, Sigma) for 4 hr. The supernatant was collected for determination of TNFα and IL-8 concentrations by sandwich ELISA (Duo-set, R&D systems). […] The relative 50% effective concentration (REC50) was determined from the resultant concentration-response curve. The inhibition of IL-8 production was calculated at each concentration of test compound by comparison with vehicle control.

Series [5] concerns the target p38 MAPK alpha (MAPK14) (Homo sapiens (Human), UniProt Q16539). The series can be described thus: Enzyme inhibition assay (FRET, Z-LYTE), p38 MAPK alpha via MAPKAP-K2 activation. The format is biochemical. Particulars: read-out: Enzyme Profile: IC50 Values p38α. How it is done: (§2) The enzyme inhibitory activity of test compounds was determined by fluorescence resonance energy transfer (FRET) using synthetic peptides labelled with both donor and acceptor fluorophores (Z-LYTE, Invitrogen). Recombinant, phosphorylated p38 MAPK γ (MAPK12:Millipore) was diluted in HEPES buffer, mixed with compound at the desired final concentrations and incubated for 2 hr at RT. The FRET peptide (2 μM) and ATP (100 μM) were next added to the enzyme/compound mixture and incubated for 1 hr. Development reagent (protease) was added for 1 hr prior to detection in a fluorescence microplate reader. The site-specific protease only cleaves non-phosphorylated peptide and eliminates the FRET signal. Phosphorylation levels of each reaction were calculated using the ratio of coumarin emission (donor) over fluorescein emission (acceptor) with high ratios indicating high phosphorylation levels and low ratios indicating low phosphorylation levels.
For p38 MAPK alpha (MAPK14: Invitrogen), enzyme activity was evaluated indirectly by determining activation/phosphorylation of the down-stream molecule, MAPKAP-K2. The p38 MAPK a protein was mixed with compound for 2 hr at RT. […] Development reagent was then added and the mixture incubated for 1 hr before detection by fluorescence completed the assay protocol.
The enzyme inhibitory activity of compound was determined by fluorescence resonance energy transfer (FRET) using synthetic peptides labelled with both donor and acceptor fluorophores (Z′-LYTE, Invitrogen).

Series [6] deals with TNFα release in THP-1 cells. The experiment in a line: LPS-induced TNFα release in THP-1 cells. The class given is cell-based. Particulars: Homo sapiens; THP-1 cells, LPS 3 μg/mL, 4 hr; read-out: THP1 (LPS) TNFα IC50. How it is done:
The inhibition of TNFα production was calculated at each concentration by comparison with vehicle control.

In series [7] the target is p38 MAPK γ (MAPK12) (Homo sapiens (Human), UniProt P53778). The series can be described thus: Enzyme inhibition assay (FRET, Z-LYTE), p38 MAPK gamma. The format is biochemical. Particulars: read-out: Enzyme Profile: IC50 Values p38γ. How it is done: as §2
Series [8] concerns the target cSrc enzyme (Homo sapiens (Human), UniProt P12931). The series can be described thus: c-SRC enzyme inhibition assay (FRET, Z'-LYTE). The format is biochemical. As to conditions: read-out: Enzyme Profile: IC50 Values cSrc.
Series [9] relates to HRV16. The experiment in a line: Rhinovirus-titre assay. The format is cell-based, human rhinovirus. Particulars: HRV16; for inhibition at 0.04 µg/mL: Human rhinovirus sp., cell not marked b, test compounds 0.04 μg/mL per method (footnote b, 0.2 μg/mL), read-out: HRV titre (inhibitory %): % inhibition observed vs. HRV16 infection control; for NBEC (HRV) HRV titre Relative anti-viral activity: at 0.04 μg/mL vs. pleconaril at 0.1 μg/mL. How it is done:
MRC5 cells (human lung fibroblast, ATCC) were infected with 1 MOI (multiplicity of infection of 1.0) of HRV16 and incubated for 1 hr at 33° C. with gentle shaking to stimulate adsorption. The cells were then washed with PBS, fresh media was added and the cells were incubated for a further 96 hr. The supernatant was collected and 10-fold serial dilutions of virus containing supernatant were prepared. All titrations were performed by infecting confluent Hela cell monolayers with serially diluted supernatant (10^−1-10^−5) and assessing the cytopathic effect by visual inspection 4 days after infection. The amount of virus required to infect 50% of Hela cells was calculated in each treatment as TCID50. Test compounds (0.04 μg/mL) were added 2 hr before HRV infection and 1 hr after infection when non-infected HRV was washed out. The anti-HRV activity of each test compound was determined as the difference of the log TCID50 of HRV16 in the presence of the compound with the log TCID50 of HRV16 in the absence of compound. […]

In series [10] the test system is TNFα release in d-U937 cells. The series can be described thus: LPS-induced TNFα release in d-U937 cells. The class given is cell-based. As to conditions: Homo sapiens, dU937, LPS 0.1 μg/mL, 4 hr, relative to 10 μg/mL BIRB796, read-out: d-U937 (LPS) TNFα REC50. How it is done:
as §1

Take `Cc1ccc(-n2nc(C(C)(C)C)cc2NC(=O)Nc2ccc(Oc3ccnc4[nH]c(=O)[nH]c34)c3ccccc23)cc1` [Example 1, 1-(3-tert-butyl-1-p-tolyl-1H-pyrazol-5-yl)-3-(4-(2-oxo-2,3-dihydro-1H-imidazo [4,5-b]pyridin-7-yloxy)naphthalen-1-yl) urea]: the IC50 was 2.7 nM in [1]; less than 2 nM in [2]; 19 nM in [4]; 17 nM in [5]; 1.6 nM in [6]; 74 nM in [7]. Further, the IC50 in series [8] came out at 7 nM. Moreover, the “d-U937 MTT Assay 4 h” value in series [3] was “− (− and + indicate the result is below and above the no significant effect threshold, respectively (<30% inhibition at a concentration of 1 μg/ml))”. Also, the “d-U937 MTT Assay 24 h” value in series [3] was “− (− and + indicate the result is below and above the no significant effect threshold, respectively (<30% inhibition at a concentration of 1 μg/ml))”. Moreover, the inhibition at 0.04 µg/mL in [9] came out at 94%. For the same compound, the “NBEC (HRV) HRV titre Relative anti-viral activity” value in [9] was found to be 0.1. Also, the EC50 in series [10] stood at 0.2 nM.

Turning to `CC(C)(C)c1cc(NC(=O)Nc2ccc(Oc3ccnc4[nH]c(=O)[nH]c34)c3ccccc23)n(-c2ccccc2)n1` [Example 2, 1-(3-tert-butyl-1-phenyl-1H-pyrazol-5-yl)-3-(4-(2-oxo-2,3-dihydro-1H-imidazo [4,5-b]pyridin-7-yloxy)naphthalen-1-yl) urea], the 50% inhibitory concentration (IC50) in series [1] was 9.8 nM; in [2], less than 2 nM; in [4], 7.5 nM; in series [5] it was 5 nM; in series [6], 1.4 nM; in series [7], 67 nM. The IC50 in series [8] was 36 nM. The “d-U937 MTT Assay 4 h” value in series [3] was “− (− and + indicate the result is below and above the no significant effect threshold, respectively (<30% inhibition at a concentration of 1 μg/ml))”. In [3], the “d-U937 MTT Assay 24 h” value was “− (− and + indicate the result is below and above the no significant effect threshold, respectively (<30% inhibition at a concentration of 1 μg/ml))”. Besides, in series [9], the inhibition at 0.04 µg/mL was found to be 60%. In addition, the “NBEC (HRV) HRV titre Relative anti-viral activity” value in series [9] amounted to 1. Further, in series [10], the EC50 came to 3 nM.

Consider `Cc1ccc(-n2nc(C(C)(C)C)cc2NC(=O)Nc2ccc(Oc3ccnc4[nH]c(=O)n(C)c34)c3ccccc23)cc1` [Example 3, 1-(3-tert-butyl-1-p-tolyl-1H-pyrazol-5-yl)-3-(4-(1-methyl-2-oxo-2,3-dihydro-1H-imidazo[4,5-b]pyridin-7-yloxy)naphthalen-1-yl)urea], for which the IC50 in [1] came out at 4.1 nM; in series [2], 2 nM; in series [4] it was 17 nM; in series [5], 1 nM; in series [6], 0.7 nM; in series [7], 24 nM. In [8], the IC50 stood at 4 nM. In series [3], the “d-U937 MTT Assay 4 h” value was “− (− and + indicate the result is below and above the no significant effect threshold, respectively (<30% inhibition at a concentration of 1 μg/ml))”. In series [3], the “d-U937 MTT Assay 24 h” value is “− (− and + indicate the result is below and above the no significant effect threshold, respectively (<30% inhibition at a concentration of 1 μg/ml))”. For the same compound, the inhibition at 0.04 µg/mL in series [9] worked out at 36%. The “NBEC (HRV) HRV titre Relative anti-viral activity” value in series [9] was determined as 0.2. Besides, the EC50 in series [10] was 1.1 nM.

On to `COc1ccc(-n2nc(C(C)(C)C)cc2NC(=O)Nc2ccc(Oc3ccnc4[nH]c(=O)n(C)c34)c(Cl)c2Cl)cc1` [Example 13, 1-(3-(tert-Butyl)-1-(4-methoxyphenyl)-1H-pyrazol-5-yl)-3-(2,3-dichloro-4-((1-methyl-2-oxo-2,3-dihydro-1H-imidazo[4,5-b]pyridin-7-yl)oxy)phenyl)urea], for which the IC50 in series [1] is 6.2 nM; in [2], 4 nM; in [4], 4.6 nM; in series [5] it was 7 nM; in series [6], 0.6 nM; in series [7] it was 23 nM. In addition, the IC50 in series [8] turned out to be 5 nM. Moreover, the “d-U937 MTT Assay 4 h” value in [3] is “− (− and + indicate the result is below and above the no significant effect threshold, respectively (<30% inhibition at a concentration of 1 μg/ml))”. The “d-U937 MTT Assay 24 h” value in [3] was “+ (− and + indicate the result is below and above the no significant effect threshold, respectively (<30% inhibition at a concentration of 1 μg/ml))”. Further, the EC50 in series [10] is 0.6 nM.

For the compound `COc1ccc(-n2nc(C(C)(C)C)cc2NC(=O)Nc2ccc(OCc3ccnc4[nH]c(=O)cnc34)c3ccccc23)cc1` [Example 23], the IC50 in series [1] amounted to 23 nM; in [2], 22 nM; in series [4], 90 nM; in series [5], 12 nM; in [7], 193 nM; in series [8] it was 35 nM. For the same compound, the “d-U937 MTT Assay 4 h” value in series [3] is “− (− and + indicate the result is below and above the no significant effect threshold, respectively (<30% inhibition at a concentration of 1 μg/ml))”. Further, in [3], the “d-U937 MTT Assay 24 h” value was “− (− and + indicate the result is below and above the no significant effect threshold, respectively (<30% inhibition at a concentration of 1 μg/ml))”. Also, the EC50 in series [10] was found to be 30 nM.

Consider `CNS(=O)(=O)Cc1ccc(-n2nc(C(C)(C)C)cc2NC(=O)Nc2ccc(Oc3ccnc4[nH]c(=O)cnc34)c3ccccc23)cc1` [Example 26, 1-(4-(3-(tert-butyl)-5-(3-(4-((3-oxo-3,4-dihydropyrido[2,3-b]pyrazin-8-yl)oxy)naphthalen-1-yl)ureido)-1H-pyrazol-1-yl)phenyl)-N-methylmethanesulfonamide], for which the IC50 came to 207 nM in series [1]; 3 nM in [2]; 1.6 nM in series [4]; 7 nM in series [5]; 75 nM in series [6]; 29 nM in series [7]. In addition, in series [8], the IC50 came out at 13 nM. Besides, in [3], the “d-U937 MTT Assay 4 h” value is “− (− and + indicate the result is below and above the no significant effect threshold, respectively (<30% inhibition at a concentration of 1 μg/ml))”. For the same compound, the “d-U937 MTT Assay 24 h” value in series [3] was “− (− and + indicate the result is below and above the no significant effect threshold, respectively (<30% inhibition at a concentration of 1 μg/ml))”. Also, in series [10], the EC50 stood at 1.9 nM.

The IC50 is the concentration needed to halve the response being measured. A word on the inhibition: it is the drop in the measured response relative to a control, in per cent.
